Measurements: EP1137438B1, “FORMULATION WITH AN IMPROVED THERAPEUTIC RANGE, CONTAINING NUCLEOTIDE SYNTHESIS INHIBITORS” (Aventis Pharma Deutschland GmbH, priority 1998, dated 2000)

What was measured:
[1] = system: Adjuvans induzierte Arthritis; test: Adjuvant-induced arthritis, modification after Perper (paw volume, arthritis index on day 18); type: in vivo, männliche Ratten eines Lewis-Stammes
Description: Adjuvans induzierte Arthritis, Modifikation nach Perper (Proc. Soc. exp. Biol. Med. 137, 506 (1971)) Als Versuchstiere dienten männliche Ratten eines Lewis-Stammes (Moellegard, Dänemark) mit einem Körpergewicht von 160 bis 210 g. Die Tiere erhielten am 1.
Tag eine subkutane Injektion in die Schwanzwurzel mit kompletten Freund'schen Adjuvans, enthaltend eine Mycobacterium butyricum Suspension in schwerem Paraffin Öl (Difco; 6 mg/kg in Paraffin Öl; Merck). Die Verbindungen N-(4-Trifluormethylphenyl)-2-cyan-3-hydroxy-crotonsäureamid und Colestyramin wurden in Carboxymethylcellulose (1 % in Wasser) suspendiert und oral verabreicht. Die Verbindungen wurden einmal täglich vom 1. bis zum 17. Versuchstag appliziert; dann erfolgte die Bestimmung des Pfotenvolumens und Arthritis-Index am 18. Tag.
Die Schwere der Erkrankung wurde durch Messung des Pfotenvolumens beider Hinterpfoten bestimmt. Die Messung erfolgte durch die Wasserverdrängungsmethode mit einem Plethysmometer 2060 (Rhema-Labortechnik, Hofheim, Deutschland). Ferner erfolgte die Bestimmung des Arthritis Index am 18. Tag nach der Injektion.
Bestimmung des Arthritis Index: 1. Ohren 0,5 Punkte für jedes Ohr an dem eine Rötung auftritt und Knoten gebildet werden 2. Nase 1 Punkt für Bindegewebsschwellung 3. Schwanz 1 Punkt für das Auftauchen von Knoten 4. Vorderpfoten 0,5 Punkte für jede Pfote an der wenigsten eine Entzündung an einem Gelenk auftritt 5. Hinterpfoten 1 Punkt für leichte Entzündung (Schwellung) 2 Punkte für eine mittelstarke Entzündung 3 Punkte für eine massive Entzündungsreaktion
Tiere einer Kontrollgruppe "Arthritis Kontrolle" erhielten am 1. Tag eine subkutane Injektion in die Schwanzwurzel mit kompletten Freund'schen Adjuvans und erhielten aber nur das Lösungsmittel (1 % Carboxymethylcellulose in Wasser). Pro Dosierung und in der Kontrollgruppe wurden jeweils 6 Tiere verwendet. Als weitere Kontrollgruppe "gesunde Kontrolle" wurden unbehandelte Tiere eingesetzt. Als Wirkungskriterium diente die Herabsetzung der Pfotenvolumenzunahme und die Abnahme des Arthritis Index gegenüber der unbehandelten Kontrollgruppe und das Gewicht der Tiere jeweils in Prozent und bezogen auf die Arthritis Kontrolle.
In der folgenden Tabelle wird N-(4-Trifluormethylphenyl)-2-cyan-3-hydroxycrotonsäureamid als Verbindung 1 bezeichnet. Colestyramin wurde 4 Stunden später als Verbindung 1 appliziert. Tabelle 1 zeigt die erhaltenen Ergebnisse. Tabelle 1

[2] = Blood levels and duration of action of Verbindung 1 after later administration of Colestyramin; type: in vivo; conditions: after later administration of Colestyramin (interruption of enterohepatic circulation); result in words
Description: Die erfindungsgemäße Zubereitung kann auch Kompositionen oder Kombinationspackungen umfassen, in denen die Bestandteile nebeneinander gestellt sind und deshalb gleichzeitig, getrennt oder zeitlich abgestuft an ein und denselben menschlichen oder tierischen Körper anwendbar sind. Bevorzugt ist die zeitlich abgestufte Applikation von der Verbindung der Formel I und/oder II vor der Applikation der Verbindung, die die enterohepatische Zirkulation der Verbindung der Formel I oder II im wesentlichen verhindert. Hierzu wird beispielsweise zuerst N-(4-Trifluormethylphenyl)-2-cyan-3-hydroxy-crotonsäureamid (im folgenden als Verbindung 1 bezeichnet) appliziert. Colestyramin, das die enterohepatische Zirkulation der Verbindung 1 im wesentlichen verhindert, wird zeitlich versetzt, also z.B. 2 Stunden oder 4 Stunden nach der Gabe der Verbindung 1, appliziert. Durch diese zeitlich versetzte Gabe der Verbindung 1 und Colestyramin wird die Verbindung 1 zunächst ungehindert aus dem Verdauungstrakt resorbiert.
Nach der Gabe von Colestyramin, welches systemisch nicht resorbiert wird, wird die über die Galle ausgeschiedene Verbindung 1 an Colestyramin gebunden und kann daher nicht wieder reabsorbiert werden; dadurch wird eine Unterbrechung der enterohepatischen Zirkulation bewirkt.

[3] = Tabelle 1, Verbindung 1 25 mg/kg oral (combination: + 1000 mg/kg Colestyramin 4 h later), once daily day 1-17, read day 18
[4] = Tabelle 1, Verbindung 1 2,5 mg/kg oral (combination: + 1000 mg/kg Colestyramin 4 h later), once daily day 1-17, read day 18
[5] = Tabelle 1, Verbindung 1 7,5 mg/kg oral (combination: + 1000 mg/kg Colestyramin 4 h later), once daily day 1-17, read day 18
[6] = Tabelle 2 (Beispiel 2), Colestyramin 1000, Verbindung 1 25, combination 25 + 1000 mg/kg (Colestyramin 4 h later)
[7] = Tabelle 3 (Beispiel 3), Colestyramin 1000, Verbindung 1 25, combination 25 + 1000 mg/kg (Colestyramin 4 h later)

CC(O)=C(C#N)C(=O)Nc1ccc(C(F)(F)F)cc1 [Verbindung 1, N-(4-Trifluormethylphenyl)-2-cyan-3-hydroxy-crotonsäureamid]
Arthritis Index (%) [1, 3]: -100%
Pfotenvolumen (%) [1, 3]: -92%
Arthritis Index (%) [1, 4]: -77%
Pfotenvolumen (%) [1, 4]: -63%
Arthritis Index (%) [1, 5]: -92%
Pfotenvolumen (%) [1, 5]: -83%
Arthritis Index (%) [1, 6]: -100%
Pfotenvolumen (%) [1, 6]: -92%
Arthritis Index (%) [1, 7]: -100%
Pfotenvolumen (%) [1, 7]: -110%
Wirksamkeit im pathologischen Tiermodell (Adjuvans Arthritis) ([1]; about 2,5 mg/kg/Tag Verbindung 1, effect of added Colestyramin, result in words): nicht vermindert
Wirkungsdauer und Blutspiegel der Verbindung 1 [2]: drastisch reduziert
